Data set [1] relates to Hepatitis B virus. The data set is described as follows: Antiviral activity against Hepatitis B virus infected in human HepG2.2.15 cells assessed as reduction in HBsAg level measured after 4 days by AlphaLisa assay. The class given is functional, organism-based. The conditions noted are these: HepG2.2.15, 96 h.
Data set [2] is described as follows: Cytotoxicity against human HepG2.2.15 cells assessed as reduction in cell viability measured after 4 days by CellTiter-Glo reagent based assay. More on the design: species or system HepG2 2.2.15. The conditions noted are these: time 4 day. In general terms: Cellular ATP, detected with luciferase, serves as a proxy for viable cell number.
Data set [3] is described as follows: 1-Octanol/saturated PBS buffer distribution coefficient, logD of the compound incubated for 1 hr by LC-MS/MS analysis. In kind it is physicochemical.
Data set [4] is described as follows: Apparent permeability across apical to basolateral side in MDCK-MDR1 cells at 1 uM measured after 120 mins by LC-MS/MS analysis. In kind it is ADME, cell-based, Canis lupus familiaris. Particulars: dog.
Data set [5] in a line: Apparent permeability across basolateral to apical side in MDCK-MDR1 cells at 1 uM measured after 120 mins by LC-MS/MS analysis. The conditions noted are these: dog. The class given is ADME, cell-based, Canis lupus familiaris.
Data set [6] concerns OATP1B3. Description: Ratio of drug uptake in HEK293 cells transfected with OATP1B3 (unknown origin) in absence of transporter inhibitor, estradiol-17beta-glucuronide to drug uptake in HEK293 cells in absence of transporter inhibitor, estradiol-17beta-glucuronide by LC-MS/MS analysis. In kind it is ADME, cell-based. The conditions noted are these: human, HEK293 cells transfected with OATP1B3 versus HEK293 cells.

In data set [7] the target is T1, Solute carrier organic anion transporter family member 1B3 (Homo sapiens, UniProt Q9NPD5).
T1 sequence (Q9NPD5 whole entry): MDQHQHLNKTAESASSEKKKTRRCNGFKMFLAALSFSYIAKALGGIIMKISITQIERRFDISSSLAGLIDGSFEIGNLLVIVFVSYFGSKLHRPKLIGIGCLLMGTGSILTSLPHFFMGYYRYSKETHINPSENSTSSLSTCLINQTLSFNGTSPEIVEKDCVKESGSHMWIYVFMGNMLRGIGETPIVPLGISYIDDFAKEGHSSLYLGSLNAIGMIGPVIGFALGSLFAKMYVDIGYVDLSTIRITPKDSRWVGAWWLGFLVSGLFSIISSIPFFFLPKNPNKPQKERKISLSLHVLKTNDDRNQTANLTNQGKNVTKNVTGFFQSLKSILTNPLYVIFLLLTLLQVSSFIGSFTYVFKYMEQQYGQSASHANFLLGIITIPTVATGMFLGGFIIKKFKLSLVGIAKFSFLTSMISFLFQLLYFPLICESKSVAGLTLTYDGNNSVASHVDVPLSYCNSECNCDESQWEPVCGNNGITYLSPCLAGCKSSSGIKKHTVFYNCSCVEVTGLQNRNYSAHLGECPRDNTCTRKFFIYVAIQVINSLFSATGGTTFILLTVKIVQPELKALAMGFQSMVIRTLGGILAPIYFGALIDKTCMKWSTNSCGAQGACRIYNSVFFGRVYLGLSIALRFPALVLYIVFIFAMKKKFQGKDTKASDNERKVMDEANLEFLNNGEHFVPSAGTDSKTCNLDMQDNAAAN
Description: Substrate activity at OATP1B3 (unknown origin) expressed in HEK293 cells assessed as ratio of drug uptake in absence of transporter inhibitor, estradiol-17beta-glucuronide to drug uptake in presence of transporter inhibitor, estradiol-17beta-glucuronide by LC-MS/MS analysis. The class given is ADME, cell-based.

Data set [8] relates to Hepatitis B virus. Description: Antiviral activity against Hepatitis B virus infected in human HepG2.2.15 cells assessed as reduction in HBV pregenomic mRNA level at 1 uM measured after 5 days by Northern blot analysis. The conditions noted are these: time 5.0 day. The class given is functional, organism-based.
For data set [9], the target named is Terminal nucleotidyltransferase 4B (Homo sapiens) (UniProt Q8NDF8). Description: Inhibition of Myc-DDK-tagged human PAPD5 expressed in HEK293 cells assessed as inhibition of poly-adenylation reaction using P32-labeled RNA oligonucleotides (5'-GCCUUUCAUCUCUAACUGCGAAAAAAAAAA-3') as substrate measured for 20 mins by phosphor imaging analysis. Particulars: dose 0.37-10 µM.

Data set [10] has as its target Terminal nucleotidyltransferase 4A (Homo sapiens) (UniProt Q5XG87). The data set is described as follows: Inhibition of human PAPD7 expressed in HEK293 cells assessed as inhibition of poly-adenylation reaction using P32-labeled RNA oligonucleotides (5'-GCCUUUCAUCUCUAACUGCGAAAAAAAAAA-3') as substrate measured for 3 hrs by phosphor imaging analysis. In kind it is cell-based. The conditions noted are these: dose 0.37-10 µM.

A short description of data set [11]: Efflux ratio of apparent permeability in MDCK-MDR1 cells at 1 uM after 120 mins by LC-MS/MS analysis. In kind it is ADME, cell-based, Canis lupus familiaris. The conditions noted are these: dog.
Data set [12] deals with Hepatitis B virus. Description: Antiviral activity against Hepatitis B virus infected in human HepG2.2.15 cells assessed as reduction in HBV subgenomic 2.4/2.1 kb mRNA level at 1 uM measured after 5 days by Northern blot analysis. The conditions noted are these: time 5.0 day. The class given is functional, organism-based.
The target of data set [13] is T2, Solute carrier organic anion transporter family member 1B1 (Homo sapiens, UniProt Q9Y6L6).
T2 sequence (Q9Y6L6 whole entry): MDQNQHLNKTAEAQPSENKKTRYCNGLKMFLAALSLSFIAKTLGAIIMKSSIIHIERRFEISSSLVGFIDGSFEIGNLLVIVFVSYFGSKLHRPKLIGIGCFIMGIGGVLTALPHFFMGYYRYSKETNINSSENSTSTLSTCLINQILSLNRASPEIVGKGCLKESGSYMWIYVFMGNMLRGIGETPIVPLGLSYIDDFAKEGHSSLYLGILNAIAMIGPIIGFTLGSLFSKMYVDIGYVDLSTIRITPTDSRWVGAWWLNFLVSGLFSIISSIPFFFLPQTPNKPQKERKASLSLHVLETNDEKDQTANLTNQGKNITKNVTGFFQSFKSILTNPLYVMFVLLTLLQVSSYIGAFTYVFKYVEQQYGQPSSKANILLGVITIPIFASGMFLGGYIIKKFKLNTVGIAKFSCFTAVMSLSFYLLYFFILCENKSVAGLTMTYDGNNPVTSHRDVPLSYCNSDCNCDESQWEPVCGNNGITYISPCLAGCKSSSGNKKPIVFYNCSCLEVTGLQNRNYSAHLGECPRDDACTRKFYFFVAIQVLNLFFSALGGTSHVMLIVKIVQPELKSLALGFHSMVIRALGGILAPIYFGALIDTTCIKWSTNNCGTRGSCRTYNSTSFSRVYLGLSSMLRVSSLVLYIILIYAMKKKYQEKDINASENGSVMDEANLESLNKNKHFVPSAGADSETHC
Description: Substrate activity at OATP1B1 (unknown origin) expressed in HEK293 cells assessed as ratio of drug uptake in absence of transporter inhibitor,estradiol-17beta-glucuronide to drug uptake in presence of transporter inhibitor, estradiol-17beta-glucuronide by LC-MS/MS analysis. In kind it is ADME, cell-based.

The subject of data set [14] is OATP1B1. Description: Ratio of drug uptake in HEK293 cells transfected with OATP1B1 (unknown origin) in absence of transporter inhibitor, estradiol-17beta-glucuronide to drug uptake in HEK293 cells in absence of transporter inhibitor, estradiol-17beta-glucuronide by LC-MS/MS analysis. The conditions noted are these: human, HEK293 cells transfected with OATP1B1 versus HEK293 cells. The class given is ADME, cell-based.

The source made the active and inactive calls. No cut-off for these calls is given here. Some results are limits rather than exact numbers.

Sequence of Terminal nucleotidyltransferase 4A (Homo sapiens) (Q5XG87 whole entry): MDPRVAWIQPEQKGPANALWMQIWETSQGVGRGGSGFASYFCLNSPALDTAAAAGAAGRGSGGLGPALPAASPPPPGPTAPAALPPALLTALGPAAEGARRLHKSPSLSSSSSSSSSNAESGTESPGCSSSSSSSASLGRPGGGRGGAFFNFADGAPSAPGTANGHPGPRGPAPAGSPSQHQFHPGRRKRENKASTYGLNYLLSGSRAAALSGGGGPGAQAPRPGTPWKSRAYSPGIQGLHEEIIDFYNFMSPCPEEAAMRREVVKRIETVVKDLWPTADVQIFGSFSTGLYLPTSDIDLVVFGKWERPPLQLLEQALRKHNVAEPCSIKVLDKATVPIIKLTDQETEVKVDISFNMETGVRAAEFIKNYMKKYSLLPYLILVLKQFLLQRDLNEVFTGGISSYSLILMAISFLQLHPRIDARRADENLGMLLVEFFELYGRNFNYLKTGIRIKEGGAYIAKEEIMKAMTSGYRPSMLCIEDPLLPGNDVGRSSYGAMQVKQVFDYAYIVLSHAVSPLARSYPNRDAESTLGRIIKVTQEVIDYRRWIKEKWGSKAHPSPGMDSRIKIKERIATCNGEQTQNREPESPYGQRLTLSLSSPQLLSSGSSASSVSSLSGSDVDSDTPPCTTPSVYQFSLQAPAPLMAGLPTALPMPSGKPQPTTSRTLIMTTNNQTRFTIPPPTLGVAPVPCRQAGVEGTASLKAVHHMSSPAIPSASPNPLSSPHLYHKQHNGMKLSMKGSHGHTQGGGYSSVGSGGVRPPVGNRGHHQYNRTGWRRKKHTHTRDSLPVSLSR
Sequence of Terminal nucleotidyltransferase 4B (Homo sapiens) (Q8NDF8 whole entry): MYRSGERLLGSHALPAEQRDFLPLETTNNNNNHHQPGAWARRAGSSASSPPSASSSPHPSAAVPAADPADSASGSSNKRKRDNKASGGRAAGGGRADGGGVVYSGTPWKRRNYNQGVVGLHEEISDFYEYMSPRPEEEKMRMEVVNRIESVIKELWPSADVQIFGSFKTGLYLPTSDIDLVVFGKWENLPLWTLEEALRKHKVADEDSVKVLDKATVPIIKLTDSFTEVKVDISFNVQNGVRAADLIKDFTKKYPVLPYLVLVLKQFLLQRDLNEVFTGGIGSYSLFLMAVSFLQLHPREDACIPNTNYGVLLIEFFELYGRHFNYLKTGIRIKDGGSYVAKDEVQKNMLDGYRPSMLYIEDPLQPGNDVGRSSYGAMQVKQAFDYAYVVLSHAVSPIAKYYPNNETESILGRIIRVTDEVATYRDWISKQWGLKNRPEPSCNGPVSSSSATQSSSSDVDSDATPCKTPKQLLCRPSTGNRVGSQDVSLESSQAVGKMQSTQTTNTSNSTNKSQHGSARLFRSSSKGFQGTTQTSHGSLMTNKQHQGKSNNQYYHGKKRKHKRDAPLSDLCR

What is called EC50 is the concentration at which the effect is half-maximal. What is called CC50 is the concentration that lowers cell viability or growth by half. Take `COc1cc2c(cc1OCCCOCC(=O)O)C[C@@H](C(C)C)n1cc(C(=O)O)c(=O)cc1-2`: the EC50 in data set [1] amounted to 2780 nM. The CC50 at 96 h in [2] is greater than 10000 nM.
For `COc1cc2c(cc1OCCCC(=O)O)C[C@@H](C(C)C)n1cc(C(=O)O)c(=O)cc1-2` the same measures were 1010 nM and greater than 10000 nM.
As usually defined, the logD is lipophilicity at a set pH, counting ionised and neutral species. A high value points to higher lipophilicity. Regarding `COc1cc2c(cc1OCCCCCCCCC(=O)O)C[C@@H](C(C)C)n1cc(C(=O)O)c(=O)cc1-2`, the EC50 in [1] came out at 4.6 nM. Besides, the logD at 1 h in data set [3] amounted to 0.7. Also, in data set [2], the cytotoxic concentration (CC50) at 96 h is greater than 10000 nM.
For `COc1cc2c(cc1OCCCCCCCC(=O)O)C[C@@H](C(C)C)n1cc(C(=O)O)c(=O)cc1-2` the same measures were 7.6 nM, 0.07 and greater than 10000 nM.
For `COc1cc2c(cc1OCC(=O)O)C[C@@H](C(C)C)n1cc(C(=O)O)c(=O)cc1-2`, in data set [1], the EC50 is greater than 10000 nM. In data set [2], the CC50 at 96 h is greater than 10000 nM.
For `COc1cc2c(cc1OCCCCC(=O)O)C[C@@H](C(C)C)n1cc(C(=O)O)c(=O)cc1-2`, in [1], the EC50 worked out at 380 nM. Further, in [2], the CC50 at 96 h is greater than 10000 nM.
For orientation: Papp A→B means how fast a substance crosses the layer from the apical side. The term Papp B→A denotes how fast a substance crosses the layer from the basolateral side. The efflux ratio is a quotient of directional permeabilities that is used to spot active efflux. As for `COCCCOc1cc2c(cc1OC)-c1cc(=O)c(C(=O)O)cn1[C@H](C(C)C)C2`, in data set [1], the EC50 came to 1.8 nM. In data set [3], the logD at 1 h was 1.39. For the same molecule, the Papp A→B at 2 h, 1 µM in [4] came to 9.17 ×10⁻⁶ cm/s. Also, the CC50 at 96 h in data set [2] is greater than 10000 nM. For the same molecule, the Papp B→A at 2 h, 1 µM in [5] came to 35.8 ×10⁻⁶ cm/s. The uptake ratio came out at 0.56 in data set [6] and 0.71 in data set [14]. The figures for the Ratio in data set [7] and in data set [13] were 0.42 and 0.38, respectively. The result in [8] and in data set [12] was Active. For the same molecule, the inhibition entry in data set [9] and in data set [10] was “Dose-Dependent Effect” in each case. In data set [11], the efflux ratio at 2 h, 1 µM was 3.9.
Take `COc1cc2c(cc1OCCCCCC(=O)O)C[C@@H](C(C)C)n1cc(C(=O)O)c(=O)cc1-2`: the EC50 in [1] is 87 nM. Also, in [2], the CC50 at 96 h was greater than 10000 nM.

Values taken from ChEMBL document CHEMBL4808208, “Hepatoselective Dihydroquinolizinone Bis-acids for HBsAg mRNA Degradation” (ACS Med Chem Lett, 2021).
